Measurements reported in patent US8003649B2 (AstraZeneca AB, priority 2007, dated 2011).

Molecular target: T1, Androgen Receptor (AR) (Homo sapiens, UniProt P10275, T878A)
T1 construct: cell based immuno-fluorescence assay using the LNCaP prostate epithelial cell line; endogenous in cells; host or cells: LNCaP clone FGC (ATCC CRL-1740)
T1 sequence (P10275 1-920 T878A): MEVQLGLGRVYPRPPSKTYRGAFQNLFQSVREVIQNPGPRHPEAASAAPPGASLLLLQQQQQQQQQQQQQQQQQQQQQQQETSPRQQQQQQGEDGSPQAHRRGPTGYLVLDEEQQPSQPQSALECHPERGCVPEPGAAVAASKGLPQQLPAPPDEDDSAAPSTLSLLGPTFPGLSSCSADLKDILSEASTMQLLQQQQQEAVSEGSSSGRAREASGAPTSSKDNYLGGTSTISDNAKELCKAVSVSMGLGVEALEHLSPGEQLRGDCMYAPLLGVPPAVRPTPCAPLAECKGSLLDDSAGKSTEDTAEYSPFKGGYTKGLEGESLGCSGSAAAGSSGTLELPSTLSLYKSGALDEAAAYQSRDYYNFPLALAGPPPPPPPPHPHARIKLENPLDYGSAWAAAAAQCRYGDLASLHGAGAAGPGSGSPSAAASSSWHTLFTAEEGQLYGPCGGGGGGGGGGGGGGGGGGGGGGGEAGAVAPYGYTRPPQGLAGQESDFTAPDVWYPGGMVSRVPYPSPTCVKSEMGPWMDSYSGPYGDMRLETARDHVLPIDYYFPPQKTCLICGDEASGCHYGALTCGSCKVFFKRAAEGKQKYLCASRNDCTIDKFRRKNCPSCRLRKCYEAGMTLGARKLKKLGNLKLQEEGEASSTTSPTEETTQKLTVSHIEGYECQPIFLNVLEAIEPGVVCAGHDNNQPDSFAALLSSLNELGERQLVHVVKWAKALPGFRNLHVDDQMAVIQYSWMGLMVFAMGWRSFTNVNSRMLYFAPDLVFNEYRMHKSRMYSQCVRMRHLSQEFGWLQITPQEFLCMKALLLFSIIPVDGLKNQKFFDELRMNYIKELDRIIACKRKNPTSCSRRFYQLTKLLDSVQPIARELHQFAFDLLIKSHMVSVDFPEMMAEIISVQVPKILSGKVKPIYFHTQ
Test: LNCaP Androgen Receptor Down-regulation Cell Assay (immunofluorescence end point)
Type: cell-based
Settings: LNCaP prostate carcinoma cells, compound incubation 20-22 hours, 50% reduction of the AR signal; read-out: Androgen Receptor Down-regulation Assay (a) IC50/μM
Summary of the method: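 AR loss reported as IC50 from curve fits of fluorescence dose-response data, with AR immunostained and read by laser-scanning cytometry. Compound exposure was 20-22 h at 37° C in LNCaP cells grown in 5% charcoal-stripped FBS and plated overnight beforehand.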

SMILES | DC50 [µM]
FC(F)(F)c1nnc2ccc(N3CC[C@H](Oc4ccncc4)C3)nn12 [Example 588, 6-[(3S)-3-(pyridin-4-yloxy)pyrrolidin-1-yl]-3-(trifluoromethyl)[1,2,4]triazolo[4,3-b]pyridazine] | 5.3
FC(F)(F)c1nnc2ccc(N3CC[C@H](Oc4ccccn4)C3)nn12 [Example 589, 6-[(3S)-3-(pyridin-2-yloxy)pyrrolidin-1-yl]-3-(trifluoromethyl)[1,2,4]triazolo[4,3-b]pyridazine] | 4.8
N#Cc1ccc(O[C@H]2CCN(c3ccc4nnc(C(F)(F)F)n4n3)C2)cc1 [Example 591] | 20
FC(F)(F)c1ccc(O[C@H]2CCN(c3ccc4nnc(C(F)(F)F)n4n3)C2)cc1 [Example 592] | 9.6
C[C@H]1CN(Cc2cccnc2)CCN1c1ccc2nnc(C(F)(F)F)n2n1 [Example 593, 6-[(2S)-2-methyl-4-(pyridin-3-ylmethyl)piperazin-1-yl]-3-(trifluoromethyl)[1,2,4]triazolo[4,3-b]pyridazine] | 7.2
C[C@H]1CN(Cc2ccc(F)c(F)c2)CCN1c1ccc2nnc(C(F)(F)F)n2n1 [Example 595] | 6.8
C[C@H]1CN(Cc2cc(F)cc(F)c2)CCN1c1ccc2nnc(C(F)(F)F)n2n1 [Example 596] | 4.2
C[C@H]1CN(Cc2ccc(F)cc2)CCN1c1ccc2nnc(C(F)(F)F)n2n1 [Example 597] | 2.9
C[C@H]1CN(Cc2ccc(F)c(C#N)c2)CCN1c1ccc2nnc(C(F)(F)F)n2n1 [Example 598] | 4.2
C[C@@H]1CN(Cc2cccnc2)CCN1c1ccc2nnc(C(F)(F)F)n2n1 [Example 599, 6-[(2R)-2-methyl-4-(pyridin-3-ylmethyl)piperazin-1-yl]-3-(trifluoromethyl)[1,2,4]triazolo[4,3-b]pyridazine] | 5.8
C[C@@H]1CN(Cc2ccc(C#N)cc2)CCN1c1ccc2nnc(C(F)(F)F)n2n1 [Example 600] | 0.85
C[C@@H]1CN(Cc2ccc(F)c(F)c2)CCN1c1ccc2nnc(C(F)(F)F)n2n1 [Example 601] | 2.2
C[C@@H]1CN(Cc2cc(F)cc(F)c2)CCN1c1ccc2nnc(C(F)(F)F)n2n1 [Example 602] | 1.6
C[C@@H]1CN(Cc2ccc(F)cc2)CCN1c1ccc2nnc(C(F)(F)F)n2n1 [Example 603] | 3.5
C[C@@H]1CN(Cc2ccc(F)c(C#N)c2)CCN1c1ccc2nnc(C(F)(F)F)n2n1 [Example 604] | 1.7
FC(F)(F)c1nnc2ccc(N3CC=C(c4cccnc4)CC3)nn12 [Example 605, 1′-[3-(trifluoromethyl)[1,2,4]triazolo[4,3-b]pyridazin-6-yl]-1′,2′,3′,6′-tetrahydro-3,4′-bipyridine] | 5
Fc1cnccc1C1=CCN(c2ccc3nnc(C(F)(F)F)n3n2)CC1 [Example 606] | 2.7
Fc1cncc(C2=CCN(c3ccc4nnc(C(F)(F)F)n4n3)CC2)c1 [Example 607] | 7.4
CCOC(=O)c1cncc(C2=CCN(c3ccc4nnc(C(F)(F)F)n4n3)CC2)c1 [Example 608] | 2.7

SMILES | DC50 [µM]
COc1ncc(C2=CCN(c3ccc4nnc(C(F)(F)F)n4n3)CC2)cc1F [Example 609] | 6.6
FC(F)(F)c1nnc2ccc(N3CCC(c4cccnc4)CC3)nn12 [Example 610, 6-(4-pyridin-3-ylpiperidin-1-yl)-3-(trifluoromethyl)[1,2,4]triazolo[4,3-b]pyridazine] | 3.2
Fc1cnccc1C1CCN(c2ccc3nnc(C(F)(F)F)n3n2)CC1 [Example 611] | 1.6
Fc1cncc(C2CCN(c3ccc4nnc(C(F)(F)F)n4n3)CC2)c1 [Example 612] | > 13
COc1ncc(C2CCN(c3ccc4nnc(C(F)(F)F)n4n3)CC2)cc1F [Example 614] | > 12
Nc1ccc(C2CCN(c3ccc4nnc(C(F)(F)F)n4n3)CC2)cc1 [Example 615, 4-[1-[3-(trifluoromethyl)[1,2,4]triazolo[4,3-b]pyridazin-6-yl]piperidin-4-yl]aniline] | 0.88
Nc1cccc(C2CCN(c3ccc4nnc(C(F)(F)F)n4n3)CC2)c1 [Example 616, 3-[1-[3-(trifluoromethyl)[1,2,4]triazolo[4,3-b]pyridazin-6-yl]piperidin-4-yl]aniline] | 1.7
FC(F)(F)c1nnc2ccc(N3CCC(Oc4cncc(Cl)c4)CC3)nn12 [Example 617] | 4.3
FC(F)(F)c1nnc2ccc(N3CCC(Oc4ccc(Cl)cn4)CC3)nn12 [Example 618] | > 4
FC(F)(F)c1nnc2ccc(N3CCC(Oc4ccncn4)CC3)nn12 [Example 619] | 4.5
FC(F)(F)c1ccnc(OC2CCN(c3ccc4nnc(C(F)(F)F)n4n3)CC2)c1 [Example 621] | 2.3
Cc1ccnc(OC2CCN(c3ccc4nnc(C(F)(F)F)n4n3)CC2)n1 [Example 622] | 7.4
N#Cc1cccc(OC2CCN(c3ccc4nnc(C(F)(F)F)n4n3)CC2)c1 [Example 623] | 0.89
Fc1ccc(OC2CCN(c3ccc4nnc(C(F)(F)F)n4n3)CC2)cc1 [Example 625] | 1.4
FC(F)(F)c1cccc(OC2CCN(c3ccc4nnc(C(F)(F)F)n4n3)CC2)c1 [Example 626] | 1.1
N#Cc1ccc(OC2CCN(c3ccc4nnc(C(F)(F)F)n4n3)CC2)cc1 [Example 627] | 1.7
N#Cc1ccc(OC2CCN(c3ccc4nnc(C(F)(F)F)n4n3)CC2)nc1 [Example 628] | 2.7
CN(CCO)C(=O)c1ccc(C2CCN(c3ccc4nnc(C(F)(F)F)n4n3)CC2)cc1 [Example 630] | 2.4
O=C(NCCN1CCCC1)c1ccc(C2CCN(c3ccc4nnc(C(F)(F)F)n4n3)CC2)cc1 [Example 631] | 1.1

SMILES | DC50 [µM]
COCCNC(=O)c1ccc(C2CCN(c3ccc4nnc(C(F)(F)F)n4n3)CC2)cc1 [Example 633] | 1.9
CN(C)C(=O)c1ccc(C2CCN(c3ccc4nnc(C(F)(F)F)n4n3)CC2)cc1 [Example 634] | 1.1
O=C(c1ccc(C2CCN(c3ccc4nnc(C(F)(F)F)n4n3)CC2)cc1)N1CCOCC1 [Example 635] | 2.9
O=C(c1ccc(C2CCN(c3ccc4nnc(C(F)(F)F)n4n3)CC2)cc1)N1CCNCC1 [Example 636] | 20
CCNC(=O)c1ccc(C2CCN(c3ccc4nnc(C(F)(F)F)n4n3)CC2)cc1 [Example 637] | 1.8
O=C(NCCN1CCOCC1)c1ccc(C2CCN(c3ccc4nnc(C(F)(F)F)n4n3)CC2)cc1 [Example 638, N-(2-morpholin-4-ylethyl)-4-[1-[3-(trifluoromethyl)[1,2,4]triazolo[4,3-b]pyridazin-6-yl]piperidin-4-yl]benzamide] | 0.9
Cc1cc(CNC(=O)c2ccc(C3CCN(c4ccc5nnc(C(F)(F)F)n5n4)CC3)cc2)no1 [Example 640] | 0.92
CN1CCC(NC(=O)c2ccc(C3CCN(c4ccc5nnc(C(F)(F)F)n5n4)CC3)cc2)CC1 [Example 641] | 1.4
CN1CCN(CCNC(=O)c2ccc(C3CCN(c4ccc5nnc(C(F)(F)F)n5n4)CC3)cc2)CC1 [Example 642] | 1.4
CN(CCO)C(=O)c1cccc(C2CCN(c3ccc4nnc(C(F)(F)F)n4n3)CC2)c1 [Example 643] | 6
O=C(NCCN1CCCC1)c1cccc(C2CCN(c3ccc4nnc(C(F)(F)F)n4n3)CC2)c1 [Example 644] | 1.5
CN1CCN(C(=O)c2cccc(C3CCN(c4ccc5nnc(C(F)(F)F)n5n4)CC3)c2)CC1 [Example 645] | 2.3
O=C(c1cccc(C2CCN(c3ccc4nnc(C(F)(F)F)n4n3)CC2)c1)N1CCNCC1 [Example 646] | 6.1
CN(C)C(=O)c1cccc(C2CCN(c3ccc4nnc(C(F)(F)F)n4n3)CC2)c1 [Example 647] | 1.7
O=C(c1cccc(C2CCN(c3ccc4nnc(C(F)(F)F)n4n3)CC2)c1)N1CCOCC1 [Example 648] | 2.1
CNC(=O)c1cccc(C2CCN(c3ccc4nnc(C(F)(F)F)n4n3)CC2)c1 [Example 649] | 2.3
CN1CCC(NC(=O)c2cccc(C3CCN(c4ccc5nnc(C(F)(F)F)n5n4)CC3)c2)CC1 [Example 651] | 1.9
FC(F)(F)c1ccccc1OC1CCN(c2ccc3nnc(C(F)(F)F)n3n2)CC1 [Example 653] | 1
N#Cc1ccccc1OC1CCN(c2ccc3nnc(C(F)(F)F)n3n2)CC1 [Example 654] | 2.6
